Patent US20230339981A1, “KRAS G12D MODULATING COMPOUNDS” (priority 2022, published 2023)

Tests used:
[1] = tested on: AsPC-1 (KRAS G12D) cells; test: 3D cell viability assay (spheroids, CellTiter-Glo 3D); type: cell-based; details: AsPC-1 cells, 3D spheroids, 4 days
Procedure: Example C. 3D Cell Viability Assay
Compounds were tested in a 384-well format for their ability to inhibit the viability of AsPC-1 (KRAS G12D) cells in 3D assays. On day 0, 1000 cells/well (80 μL volume per well) in DMEM with 10% FBS, and Penicillin-Streptomycin-Glutamine were plated in 384-well Ultra-Low Attachment Spheroid Microplates (Corning, Catalog #3830) on the BioTEK EL406 liquid dispenser with a 5 μL dispensing cassette (BioTek 7170011). The plates were incubated at 37° C., 5% CO2 for 3 days to allow spheroid formation. On day 3, compounds were serially diluted (1:3) in DMSO. The Biomek FX was used to add 400 nL of test molecule per well. The plates were incubated at 37° C., 5% CO2 for 4 days before addition of CellTiter-Glo 3D (Promega, Catalog #9683) reagent and measurement of luminescence signal. EC50 values were defined as the compound concentration that causes a 50% decrease in luminescence signal and were calculated using a sigmoidal dose-response model to generate curve fits.

[2] = tested on: GP2D (KRAS G12D) cells; test: 2D cell viability assay (CellTiter-Glo); type: cell-based; details: 4 days
Method in brief: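 GP2D (KRAS G12D) cells, 1000/well in RPMI + 10% FBS, were plated onto compound (1:3 DMSO series) and grown 4 days at 37 °C, 5% CO2 in 2D. CellTiter-Glo luminescence was read; EC50 is the concentration giving 50% signal decrease, from sigmoidal fit.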

[3] = molecular target: GDP-loaded KRAS G12D (Homo sapiens (Human), UniProt P01116, G12D); test: KRAS G12D (GDP) biochemical assay (TR-FRET probe displacement); type: binding; details: 2 hours
Method in brief: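 Compound pre-incubated 30 min with GDP-loaded KRAS G12D in 50 mM Hepes pH 7.4, 150 mM NaCl, 5 mM MgCl2, 0.005% Tween-20, then Eu-streptavidin and TR-FRET probe added. After 2 h at room temperature, TR-FRET ratio read; IC50 is 50% ratio decrease, sigmoidal fit.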

Sequence of GDP-loaded KRAS G12D (P01116-2 other isoform, or with tags, fused parts or gaps G12D): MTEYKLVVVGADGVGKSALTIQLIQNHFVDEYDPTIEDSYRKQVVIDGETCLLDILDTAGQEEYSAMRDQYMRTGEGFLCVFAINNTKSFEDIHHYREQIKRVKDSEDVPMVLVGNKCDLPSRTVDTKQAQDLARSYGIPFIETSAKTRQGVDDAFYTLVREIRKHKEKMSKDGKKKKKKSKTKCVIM

Compound	EC50 [1]	EC50 [2]	IC50 [3]	EC50 ([1]; Homo sapiens, ASPC1, 96 h)	EC50 ([2]; GP2d, 96 h)
C#Cc1c(F)ccc2cc(O)cc(-c3nc4c5c(nc(OC[C@@]67CCCN6[C@H](COC(C6CC6)C(F)(F)F)CC7)nc5c3F)N3C[C@H]5CC[C@H](N5)[C@H]3CC4)c12 (stereo partly drawn) [Example 147, 4-((5aR,6S,9R)-12-(((3S,7aS)-3-((1-cyclopropyl-2,2,2-trifluoroethoxy)methyl)tetrahydro-1H-pyrrolizin-7a(5H)-yl)methoxy)-1-fluoro-4,5,5a,6,7,8,9,1O-octahydro-3,10a,11,13,14-pentaaza-6,9-methanonaphtho[1,8-ab]heptalen-2-yl)-5-ethynyl-6-fluoronaphthalen-2-ol]	19 nM	1.3 nM	< 0.1 nM	–	–
C#Cc1c(F)ccc2cccc(-c3nc4c5c(nc(OC[C@@]67CCCN6C[C@H](F)C7)nc5c3F)N3C[C@H]5CC[C@H](N5)[C@H]3[C@@H](C)C4)c12 [Example 183, (5S,5aR,6S,9R)-2-(8-ethynyl-7-fluoronaphthalen-1-yl)-1-fluoro-12-(((2R,7aS)-2-fluorotetrahydro-1H-pyrrolizin-7a(5H)-yl)methoxy)-5-methyl-4,5,5a,6,7,8,9,10-octahydro-3,10a,11,13,14-pentaaza-6,9-methanonaphtho[1,8-ab]heptalene]	–	–	1.9 nM	270 nM	63 nM
C#Cc1c(F)ccc2cc(O)cc(-c3nc4c5c(nc(OC[C@@]67CCCN6[C@H](COC(=O)N6CCCCCC6)CC7)nc5c3F)N3C[C@H]5CC[C@H](N5)[C@H]3CO4)c12 [Example 38, ((3S,7aS)-7a-((((5aS,6S,9R)-2-(8-ethynyl-7-fluoro-3-hydroxynaphthalen-1-yl)-1-fluoro-5a,6,7,8,9,10-hexahydro-5H-4-oxa-3,10a,11,13,14-pentaaza-6,9-methanonaphtho[1,8-ab]heptalen-12-yl)oxy)methyl)hexahydro-1H-pyrrolizin-3-yl)methyl azepane-1-carboxylate]	–	–	0.3 nM	47 nM	28 nM
C#Cc1c(F)ccc2cc(O)cc(-c3nc4c5c(nc(OC[C@@]67CCCN6[C@H](COC(=O)N(C)C)CC7)nc5c3F)N3C[C@H]5CC[C@H](N5)[C@H]3CO4)c12 [Example 39, ((3S,7aS)-7a-((((5aS,6S,9R)-2-(8-ethynyl-7-fluoro-3-hydroxynaphthalen-1-yl)-1-fluoro-5a,6,7,8,9,10-hexahydro-5H-4-oxa-3,10a,11,13,14-pentaaza-6,9-methanonaphtho[1,8-ab]heptalen-12-yl)oxy)methyl)hexahydro-1H-pyrrolizin-3-yl)methyl dimethylcarbamate]	–	–	0.4 nM	96 nM	48 nM
C#Cc1c(F)ccc2cc(O)cc(-c3nc4c5c(nc(OC[C@@]67CCCN6C[C@H](F)C7)nc5c3F)N3C[C@H]5CC[C@H](N5)C3C[C@@H]4C)c12 (stereo in doubt) [Example 94, 5-ethynyl-6-fluoro-4-((4S,5aS,6S,9R)-1-fluoro-12-(((2R,7aS)-2-fluorotetrahydro-1H-pyrrolizin-7a(5H)-yl)methoxy)-4-methyl-4,5,5a,6,7,8,9,10-octahydro-3,10a,11,13,14-pentaaza-6,9-methanonaphtho[1,8-ab]heptalen-2-yl)naphthalen-2-ol]	–	–	0.1 nM	2.2 nM	0.6 nM
C#Cc1c(F)ccc2cc(O)cc(-c3nc4c5c(nc(OC[C@@]67CCCN6C[C@H](F)C7)nc5c3F)N3C[C@H]5CC[C@H](N5)[C@@H]3CCC4)c12 [Example 132, 5-ethynyl-6-fluoro-4-((6aS,7S,10R)-1-fluoro-13-(((2R,7aS)-2-fluorotetrahydro-1H-pyrrolizin-7a(5H)-yl)methoxy)-5,6,6a,7,8,9,10,11-octahydro-4H-3,11a,12,14,15-pentaaza-7,10-methanocyclohepta[4,5]cycloocta[1,2,3-de]naphthalen-2-yl)naphthalen-2-ol]	–	–	0.2 nM	50 nM	2.2 nM
C#Cc1c(F)ccc2cc(O)cc(-c3nc4c5c(nc(OCC6(CN7CCC[Si](C)(C)CC7)CC6)nc5c3F)N3C[C@H]5CC[C@H](N5)[C@H]3CC4)c12 [Example 78, 4-((5aR,6S,9R)-12-((1-((4,4-dimethyl-1,4-azasilepan-1-yl)methyl)cyclopropyl)methoxy)-1-fluoro-4,5,5a,6,7,8,9,10-octahydro-3,10a,11,13,14-pentaaza-6,9-methanonaphtho[1,8-ab]heptalen-2-yl)-5-ethynyl-6-fluoronaphthalen-2-ol]	–	–	0.2 nM	15 nM	3.9 nM
C#Cc1c(F)ccc2cc(O)cc(-c3nc4c5c(nc(OCC6(CN7CCC8(CC7)CC8)CC6)nc5c3F)N3C[C@H]5CC[C@H](N5)[C@H]3CC4)c12 [Example 177, 4-((5aR,6S,9R)-12-((1-((6-azaspiro[2.5]octan-6-yl)methyl)cyclopropyl)methoxy)-1-fluoro-4,5,5a,6,7,8,9,10-octahydro-3,10a,11,13,14-pentaaza[6,9]methanonaphtho[1,8-ab]heptalen-2-yl)-5-ethynyl-6-fluoronaphthalen-2-ol]	–	–	–	20 nM	1.5 nM
C#Cc1c(F)ccc2cccc(-c3nc4c5c(nc(OC[C@@]67CCCN6C[C@H](F)C7)nc5c3F)N3C[C@H]5CC[C@H](N5)[C@H]3[C@H](C)C4)c12 [Example 184, (5R,5aR,6S,9R)-2-(8-ethynyl-7-fluoronaphthalen-1-yl)-1-fluoro-12-(((2R,7aS)-2-fluorotetrahydro-1H-pyrrolizin-7a(5H)-yl)methoxy)-5-methyl-4,5,5a,6,7,8,9,10-octahydro-3,10a,11,13,14-pentaaza-6,9-methanonaphtho[1,8-ab]heptalene]	–	–	0.7 nM	–	19 nM
C#Cc1c(F)ccc2cc(O)cc(-c3cc4c5c(nc(OC[C@@]67CCCN6C[C@H](F)C7)nc5c3F)N3C[C@H]5CC[C@H](N5)[C@H]3CO4)c12 [Example 57, 5-ethynyl-6-fluoro-4-((5aS,6S,9R)-1-fluoro-13-(((2R,7aS)-2-fluorotetrahydro-1H-pyrrolizin-7a(5H)-yl)methoxy)-5a,6,7,8,9,1O-hexahydro-5H-6,9-epiminoazepino[2′,1′:3,4][1,4]oxazepino[5,6,7-de]quinazolin-2-yl)naphthalen-2-ol]	–	–	0.6 nM	–	28 nM
C#Cc1c(F)ccc2cccc(-c3nc4c5c(nc(OCC6(CN7CCC8(CC7)CC8(F)F)CC6)nc5c3F)N3C[C@H]5CC[C@H](N5)[C@@H]3[C@@H](C)C4)c12 [Example 136, (5S,5aS,6S,9R)-12-((1-((1,1-difluoro-6-azaspiro[2.5]octan-6-yl)methyl)cyclopropyl)methoxy)-2-(8-ethynyl-7-fluoronaphthalen-1-yl)-1-fluoro-5-methyl-4,5,5a,6,7,8,9,10-octahydro-3,10a,11,13,14-pentaaza-6,9-methanonaphtho[1,8-ab]heptalene]	–	–	17.1 nM	–	100 nM
Oc1cc(-c2nc3c4c(nc(OC[C@@]56CCCN5C[C@H](F)C6)nc4c2F)N2C[C@H]4CC[C@H](N4)[C@H]2CO3)c2c(OC(F)(F)F)c(F)ccc2c1 [Example 7, 6-fluoro-4-((5aS,6S,9R)-1-fluoro-12-(((2R,7aS)-2-fluorotetrahydro-1H-pyrrolizin-7a(5H)-yl)methoxy)-5a,6,7,8,9,10-hexahydro-5H-4-oxa-3,10a,11,13,14-pentaaza-6,9-methanonaphtho[1,8-ab]heptalen-2-yl)-5-(trifluoromethoxy)naphthalen-2-ol]	–	–	0.6 nM	–	16 nM
C#Cc1c(F)ccc2cc(O)cc(-c3nc4c5c(nc(OCC6(CN7CCOCC7)CC6)nc5c3F)N3C[C@H]5CC[C@H](N5)[C@H]3CO4)c12 [Example 28, 5-ethynyl-6-fluoro-4-((5aS,6S,9R)-1-fluoro-12-((1-(morpholinomethyl)cyclopropyl)methoxy)-5a,6,7,8,9,10-hexahydro-5H-4-oxa-3,10a,11,13,14-pentaaza-6,9-methanonaphtho[1,8-ab]heptalen-2-yl)naphthalen-2-ol]	–	–	0.6 nM	–	7 nM
C#Cc1c(F)ccc2cccc(-c3nc4c5c(nc(OC[C@@]67CCCN6[C@H](COc6cc(C(F)(F)F)cnn6)CC7)nc5c3F)N3C[C@H]5CC[C@H](N5)[C@H]3CCC4)c12 [Example 198, (6aR,7S,10R)-2-(8-ethynyl-7-fluoronaphthalen-1-yl)-1-fluoro-13-(((3S,7aS)-3-(((5-(trifluoromethyl)pyridazin-3-yl)oxy)methyl)tetrahydro-1H-pyrrolizin-7a(5H)-yl)methoxy)-5,6,6a,7,8,9,10,11-octahydro-4H-3,11a,12,14,15-pentaaza-7,10-methanocyclohepta[4,5]cycloocta[1,2,3-de]naphthalene]	–	–	0.02 nM	–	2.4 nM
